Assay results reported in patent US6750228B1, “Aromatic sulfone hydroxamic acid metalloprotease inhibitor” (priority 1997, dated 2004).
Read-outs that look alike come from different tables or passages of the source.

Columns and labels:
Test in all cases: biochemical
MMP-13 = molecular target: T1, MMP-13 (Homo sapiens, UniProt P45452); details: read-out: MMP-13 IC50
T1 construct: made in house; host or cells: baculovirus / insect cells
Protocol: (§1) The compounds prepared in the manner described in the Examples above were assayed for activity by an in vitro assay. […] Briefly, 4-aminophenylmercuric acetate (APMA) or trypsin-activated MMPs were incubated with various concentrations of the inhibitor compound at room temperature for 5 minutes.
(§2) The expressed enzyme was purified first over a heparin agarose column and then over a chelating zinc chloride column. The proenzyme was activated by APMA for use in the assay.
(§3) MMP-1 expressed in transfected HT-1080 cells was provided by Dr. Harold Welgus of Washington University, St. Louis, Mo. The enzyme was also activated using APMA and was then purified over a hydroxamic acid column. Dr. Welgus also provided transfected HT-1080 cells that expressed MMP-9. Transfected cells that expressed MMP-2 were provided by Dr. Gregory Goldberg, also of Washington University. Studies with MMP-7 were carried out at pH 7.5 in the presence of 0.02% 2-mercaptoethanol using conditions otherwise similar to those used for the other enzymes. The enzyme was obtaind from a hMMP-7-expressing E. coli clone that was a gift of Dr. Steven Shapiro of Washington University, St. Louis, Mo. Further specifics for preparation and use of these enzymes can be found in the scientific literature describing these enzymes. See, for example, Enzyme Nomenclature, Academic Press, San Diego, Calif. […] The enzyme substrate is a methoxycoumarin-containing polypeptide having the following sequence:
(§4) MCA-ProLeuGlyLeuDpaAlaArgNH2, wherein MCA is methoxycoumarin and Dpa is 3-(2,4-dinitrophenyl)-L-2,3-diaminopropionyl alanine.
(§5) The buffer used for assays contained 100 mM Tris-HCl, 100 mM NaCl, 10 mM CaCl2 and 0.05 percent polyethyleneglycol (23) lauryl ether at a pH value of 7.5. Assays were carried out at room temperature, and dimethyl sulfoxide (DMSO) at a final concentration of 1 percent was used to dissolve inhibitor compound.
(§6) The assayed inhibitor compound in DMSO/buffer solution was compared to an equal amount of DMSO/buffer with no inhibitor as control using Microfluor White Plates (Dynatech). The inhibitor or control solution was maintained in the plate for 10 minutes and the substrate was added to provide a final concentration of 4 μM.
(§7) Inhibition was measured as a reduction in fluorescent intensity as a function of inhibitor concentration, using a Perkin Elmer L550 plate reader. The IC50 values were calculated from those values. The results are set forth in the Inhibition Table A, below, reported in terms of IC50 to three significant figures, where appropriate.

MMP-1 = molecular target: T2, MMP-1 (Homo sapiens, UniProt P03956); details: read-out: MMP-1 IC50
T2 construct: made in house; host or cells: transfected HT-1080 cells (provided by Dr. Harold Welgus, Washington University)
T2 sequence (P03956 100-469): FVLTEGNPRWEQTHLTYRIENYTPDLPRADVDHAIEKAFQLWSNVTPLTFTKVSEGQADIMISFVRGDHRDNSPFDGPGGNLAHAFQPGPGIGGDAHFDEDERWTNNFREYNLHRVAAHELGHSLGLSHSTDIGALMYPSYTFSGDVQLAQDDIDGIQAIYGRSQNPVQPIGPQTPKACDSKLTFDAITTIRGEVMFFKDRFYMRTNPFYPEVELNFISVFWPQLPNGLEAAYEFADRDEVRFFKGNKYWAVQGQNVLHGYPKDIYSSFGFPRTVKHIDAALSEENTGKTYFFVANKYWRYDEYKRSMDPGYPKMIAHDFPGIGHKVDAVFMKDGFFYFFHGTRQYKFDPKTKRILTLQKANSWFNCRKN
Protocol: as §1, §2, §3, §4, §5, §6, §7

MMP-2 = molecular target: T3, MMP-2 (Homo sapiens, UniProt P08253); details: read-out: MMP-2 IC50
T3 construct: made in house; provided by Dr. Gregory Goldberg, Washington University
T3 sequence (P08253 110-660): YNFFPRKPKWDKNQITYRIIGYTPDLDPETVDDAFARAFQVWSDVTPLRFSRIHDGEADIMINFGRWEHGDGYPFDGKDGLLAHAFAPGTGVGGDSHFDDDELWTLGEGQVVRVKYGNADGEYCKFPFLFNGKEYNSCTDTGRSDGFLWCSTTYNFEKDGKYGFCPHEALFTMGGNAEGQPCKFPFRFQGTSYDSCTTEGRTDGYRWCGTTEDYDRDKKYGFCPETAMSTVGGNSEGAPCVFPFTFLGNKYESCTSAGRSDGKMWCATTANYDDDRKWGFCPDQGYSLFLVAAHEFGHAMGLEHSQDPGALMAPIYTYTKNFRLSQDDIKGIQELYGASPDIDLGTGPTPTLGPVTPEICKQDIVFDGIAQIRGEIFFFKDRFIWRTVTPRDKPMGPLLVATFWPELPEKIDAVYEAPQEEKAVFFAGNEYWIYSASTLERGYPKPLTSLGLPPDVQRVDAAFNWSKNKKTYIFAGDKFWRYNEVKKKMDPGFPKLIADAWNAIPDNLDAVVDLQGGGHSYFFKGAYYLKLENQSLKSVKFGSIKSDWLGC
Protocol: as §1, §2, §3, §4, §5, §6, §7

[1] = recombinant human MMP-13, MCA peptide substrate 4 μM, pH 7.5, room temperature
[2] = recombinant human MMP-1, MCA peptide substrate 4 μM, pH 7.5, room temperature
[3] = recombinant human MMP-2, MCA peptide substrate 4 μM, pH 7.5, room temperature

Compound	IC50 (MMP-13; [1])	IC50 (MMP-1; [2])	IC50 (MMP-2; [3])	IC50 (MMP-13)	IC50 (MMP-1)	IC50 (MMP-2)
N#Cc1ccc(OC2CCN(c3ccc(S(=O)(=O)C4(C(=O)NO)CCOCC4)cc3)CC2)cc1 [Example 469]	0.8 nM	> 10000 nM	12 nM			
O=C(C1CCN(c2ccc(S(=O)(=O)C3(C(=O)NO)CCOCC3)cc2)CC1)N1CCN(c2ncccc2C(F)(F)F)CC1 [Example 33]				20 nM	> 10000 nM	4500 nM
CCCc1ccc(C(=O)C2CCN(c3ccc(S(=O)(=O)C4(C(=O)NO)CCOCC4)cc3)CC2)cc1 [Example 860]	2.7 nM	> 10000 nM	1500 nM			
COc1ccc(C2CCN(c3ccc(S(=O)(=O)C4(C(=O)NO)CCOCC4)cc3)CC2)c(OC)c1 [Example 833]	11 nM	> 10000 nM	1750 nM			
Cc1cccc(COC2CCC(Oc3ccc(S(=O)(=O)C4(C(=O)NO)CCOCC4)cc3)C2)c1 (stereo not drawn) [Example 651]	13.7 nM	> 10000 nM	60 nM			
O=C(Nc1ccc(OC(F)(F)F)cc1)C1CCN(c2ccc(S(=O)(=O)C3(C(=O)NO)CCOCC3)cc2)CC1 [Example 73]	15.4 nM	> 10000 nM	2000 nM			
O=C(NO)C1(S(=O)(=O)c2ccc(N3CCC(OCc4ccc(COCC(F)(F)C(F)(F)F)cc4)CC3)cc2)CCOCC1 [Example 565]	5.5 nM	> 10000 nM	700 nM			
CC1CC(C)CN(C(=O)C2CCN(c3ccc(S(=O)(=O)C4(C(=O)NO)CCN(C(=O)CN5CCCC5)CC4)cc3)CC2)C1 (stereo not drawn) [Example 298]	40 nM	> 10000 nM	> 10000 nM			
O=C(NC1CCN(c2ccc(S(=O)(=O)C3(C(=O)NO)CCOCC3)cc2)CC1)c1ccc(OC(F)(F)F)cc1 [Example 752]	14.8 nM	> 10000 nM	271 nM			
O=C(CCCCNCCO)N1CCC(C(=O)NO)(S(=O)(=O)c2ccc(Oc3ccc(C(F)(F)F)cc3)cc2)CC1 [Example 337]	2.7 nM	> 10000 nM	0.2 nM			
COC1CCCN(c2ccc(S(=O)(=O)C3(C(=O)NO)CCOCC3)cc2)C1 (stereo not drawn) [Example 524]	2700 nM	> 10000 nM	6400 nM			
O=C(Cn1ccnc1)N1CCC(C(=O)NO)(S(=O)(=O)c2ccc(Oc3ccc(C(F)(F)F)cc3)cc2)CC1 [Example 317]	1.4 nM	> 10000 nM	0.4 nM			
O=C(NO)C1(S(=O)(=O)c2ccc(N3CCN(Cc4ccccc4)CC3)cc2)CCOCC1 [Example 538]	80 nM	> 10000 nM	370 nM			
O=C(C1CCN(c2ccc(S(=O)(=O)C3(C(=O)NO)CCOCC3)cc2)CC1)N1CCN(c2nccc(C(F)(F)F)n2)CC1 [Example 49]				20 nM	> 10000 nM	6500 nM
CC1CC(C)CN(C(=O)C2CCN(c3ccc(S(=O)(=O)C4(C(=O)NO)CCN(C(=O)CN5CCNCC5)CC4)cc3)CC2)C1 (stereo not drawn) [Example 290]	50 nM	> 10000 nM	> 10000 nM			
C[C@H]1C[C@H](C)CN(C(=O)C2CCN(c3ccc(S(=O)(=O)C4(C(=O)NO)CCN(C(=O)CCl)CC4)cc3)CC2)C1 [Example 275]				70 nM	> 10000 nM	> 10000 nM
